Results on five molecules are retold here after patent US20240041806A1, “Eyedrops for Inhibiting Myopia Progression in Children and Screening Method for Inhibitor of Myopia Progression in Children” (Tsubota Laboratory, Inc., priority 2020, published 2024).

“Also recorded” adds a separate entry of the source. Where two headings read alike, the source gives them in different places.

Assay [1] relates to myopia-induced juvenile mouse. As to the kind of experiment: Lens-induced myopia (-30 D lens) in juvenile mouse: axial length (SD-OCT) and refraction. The format is in vivo, mouse (C57BL6J). To be noted: for axial elongation of myopia-induced eye / myopic refraction of myopia-induced eye / axial elongation of control eye in which myopia had not been induced: eyedrop once a day for 10 days, 60 μM STF, 100 μM other inhibitors; for axial elongation of myopia-induced eye / myopic refraction of myopia-induced eye: -30 D lens eye; for axial elongation of control eye in which myopia had not been induced: compared with DMSO eyedrop.

Assay [2] has as its system endoplasmic reticulum stress response genes (PERK pathway and ATF6 pathway) in the sclera. The note with it: FIG. 8. The method, then:
A solution of sodium phenylbutyrate in PBS (4-PBA; 200 mg/kg) or tauroursodeoxycholic acid (TUDCA; 100 mg/kg) was intraperitoneally injected (i.p.) every day during the myopia induction period. Quantitative real-time PCR was performed using StepOnePlus Realtime PCR system with PowerUp SYBR Green Master Mix (Applied Biosystems, CA, USA). Expression level was standardized using β-actin. FIG. 8 illustrates change in gene expression obtained after intraperitoneal injection of 4-PBA every day through the myopia induction period. […] Besides, FIG. 10 illustrates axial elongation (a) and refraction change (b) obtained by eyedrop administration of 0.2% or 2% 4-PBA to a mouse during myopia induction. FIG. 11 illustrates axial elongation (b) and refraction change (a) obtained by intraperitoneal injection of TUDCA every day over the myopia induction period.

For assay [3], the system named is lens of myopia-induced juvenile mouse. To be noted: -30 D lens wearing group. On the procedure: It was examined whether or not a difference in the dosage form of 4-PBA affects the change in the lens. In accordance with the description given above in “Experimental Method”, 4-PBA was eye-dropped or intraperitoneally administered to a myopia-induced juvenile mouse, and the thickness of the lens was measured with SD-OCT in the same manner as in the measurement of the axial length.

The mark [4] stands for this setting: eyedrop administration of 2% 4-PBA as printed, 1st and 3rd weeks, FIG. 9.

In the case of `Cc1cc(=O)oc2c(C=O)c(O)ccc12` [4μ8C], in assay [1], the “axial elongation of myopia-induced eye” value is recorded as “neither axial elongation nor myopic refraction was inhibited” and the “myopic refraction of myopia-induced eye” value is reported as “neither axial elongation nor myopic refraction was inhibited”.

For the molecule `O=C(Nc1cnn(Cc2ccc(C(F)(F)F)cc2C(F)(F)F)c1)c1cc(-c2ccco2)on1` [Ceapin-A7], in assay [1], the “axial elongation of myopia-induced eye” value is listed as “neither axial elongation nor myopic refraction was inhibited”, the “myopic refraction of myopia-induced eye” value is listed as “neither axial elongation nor myopic refraction was inhibited” and the “axial elongation of control eye in which myopia had not been induced” value is listed as “the eye axis of the control eye also elongated”.

In the case of `Cn1cc(-c2ccc3c(c2)CCN3C(=O)Cc2cccc(C(F)(F)F)c2)c2c(N)ncnc21` [GSK2606414], in assay [1], the “axial elongation of myopia-induced eye” value is on record as “neither axial elongation nor myopic refraction was inhibited”, the “myopic refraction of myopia-induced eye” value is listed as “neither axial elongation nor myopic refraction was inhibited” and the “axial elongation of control eye in which myopia had not been induced” value is reported as “the eye axis of the control eye also elongated”.

For the molecule `C[C@H](CCC(=O)NCCS(=O)(=O)O)[C@H]1CC[C@H]2[C@@H]3[C@@H](O)C[C@@H]4C[C@H](O)CC[C@]4(C)[C@H]3CC[C@]12C` [TUDCA, tauroursodeoxycholic acid], the physiological axial elongation result in assay [1] (intraperitoneal TUDCA 100 mg/kg every day during myopia induction, FIG. 11) is reported as “did not inhibit physiological axial elongation”. Also, the myopic refraction result in assay [1] (intraperitoneal TUDCA 100 mg/kg every day during myopia induction, FIG. 11(a)) was “myopic refraction is inhibited”. Moreover, the “axial elongation (pathologic axial elongation)” value in assay [1] (intraperitoneal TUDCA 100 mg/kg every day during myopia induction, FIG. 11(b)) was “inhibited pathologic axial elongation; also recorded: axial elongation is inhibited”.

Sodium phenylbutyrate [4-PBA]: the “expression of endoplasmic reticulum stress response genes in sclera of myopia induced eyes” value in assay [2] (4-PBA 200 mg/kg/day intraperitoneal vs PBS) is given as “the increase is inhibited”. The “expression of genes disposed downstream of the PERK pathway and the ATF6 pathway” value in assay [2] (eyedrop administration of 2% 4-PBA as printed) is “significantly inhibited”. The “axial elongation, dose dependence” value in assay [1] (eyedrop administration of 0.2% or 2% 4-PBA during myopia induction, FIG. 10(a)) is “dose-dependent effectiveness was found; also recorded: inhibits axial elongation dose-dependently”. In addition, the “myopic refraction, dose dependence” value in assay [1] (eyedrop administration of 0.2% or 2% 4-PBA during myopia induction, FIG. 10(b)) was “dose-dependent effectiveness was found; also recorded: inhibits myopic refraction dose-dependently”. The axial elongation entry was “significantly inhibited to the same extent” in assay [1] (setting [4]); “the axial elongation is inhibited” in assay [1] (intraperitoneal 4-PBA 200 mg/kg/day, 1st week and 3rd week of myopia induction (LIM), FIG. 9(a)). For the same molecule, the myopic refraction result is on record as “significantly inhibited to the same extent” in assay [1] (setting [4]); “the myopic refraction is inhibited” in assay [1] (intraperitoneal 4-PBA 200 mg/kg/day, 1st week and 3rd week of myopia induction (LIM), FIG. 9(b)). Further, the “lens thickening caused by myopia induction (LIM)” value is given as “lens thickening was not caused” in assay [3] (eyedrop administration of 4-PBA, FIG. 14(B)) and “did not affect lens thickening” in assay [3] (intraperitoneal administration of 4-PBA, FIG. 14(A)).
